Reference: article PMC4904262 (ACS Medicinal Chemistry Letters, 2016)

Experiments:
SRC(T341M) = SRC(T341M) (Homo sapiens, UniProt P12931, T341M); details: 1 µM, ATP at Km
EGFR(L861Q) = EGFR(L861Q) (Homo sapiens, UniProt P00533, L861Q); details: 1 µM, ATP at Km
BTK(R28H) = BTK(R28H) (Homo sapiens, UniProt Q06187, R28H); details: 1 µM, ATP at Km
[…](V561D) = […](V561D) (Homo sapiens, UniProt P16234, V561D); details: 1 µM, ATP at Km
CHK2(R145W) = CHK2(R145W) (Homo sapiens, UniProt O96017, R145W); details: 1 µM, ATP at Km
cMET (Y1248H) = cMET (Y1248H) (Homo sapiens, UniProt P08581, Y1230H); details: 1 µM, ATP at Km
TEC ACTIVATED = TEC ACTIVATED (Homo sapiens, UniProt P42680); details: 1 µM, ATP at Km
Chain of TEC ACTIVATED (P42680 whole entry): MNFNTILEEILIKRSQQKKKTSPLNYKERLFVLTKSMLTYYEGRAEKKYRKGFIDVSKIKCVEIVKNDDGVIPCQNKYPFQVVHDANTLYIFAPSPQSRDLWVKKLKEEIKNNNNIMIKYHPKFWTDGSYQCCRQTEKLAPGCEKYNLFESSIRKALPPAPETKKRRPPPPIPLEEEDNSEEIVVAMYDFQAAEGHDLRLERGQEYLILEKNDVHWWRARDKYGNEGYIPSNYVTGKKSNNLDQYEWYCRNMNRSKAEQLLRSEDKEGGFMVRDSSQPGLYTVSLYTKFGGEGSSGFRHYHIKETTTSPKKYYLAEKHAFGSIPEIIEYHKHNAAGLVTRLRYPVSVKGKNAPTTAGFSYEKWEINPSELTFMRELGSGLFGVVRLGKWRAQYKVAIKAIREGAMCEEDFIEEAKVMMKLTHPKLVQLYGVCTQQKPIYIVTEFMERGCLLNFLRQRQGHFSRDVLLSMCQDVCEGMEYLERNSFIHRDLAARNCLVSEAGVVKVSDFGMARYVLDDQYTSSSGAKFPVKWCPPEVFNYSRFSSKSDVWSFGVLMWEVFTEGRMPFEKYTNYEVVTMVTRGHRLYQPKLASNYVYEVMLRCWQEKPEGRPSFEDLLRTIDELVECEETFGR

CKIT(V654A) = CKIT(V654A) (Homo sapiens, UniProt P10721, V654A); details: 1 µM, ATP at Km
CHK1 = CHK1 (Homo sapiens, UniProt O14757); details: 1 µM, ATP at Km
Chain of CHK1 (O14757 whole entry): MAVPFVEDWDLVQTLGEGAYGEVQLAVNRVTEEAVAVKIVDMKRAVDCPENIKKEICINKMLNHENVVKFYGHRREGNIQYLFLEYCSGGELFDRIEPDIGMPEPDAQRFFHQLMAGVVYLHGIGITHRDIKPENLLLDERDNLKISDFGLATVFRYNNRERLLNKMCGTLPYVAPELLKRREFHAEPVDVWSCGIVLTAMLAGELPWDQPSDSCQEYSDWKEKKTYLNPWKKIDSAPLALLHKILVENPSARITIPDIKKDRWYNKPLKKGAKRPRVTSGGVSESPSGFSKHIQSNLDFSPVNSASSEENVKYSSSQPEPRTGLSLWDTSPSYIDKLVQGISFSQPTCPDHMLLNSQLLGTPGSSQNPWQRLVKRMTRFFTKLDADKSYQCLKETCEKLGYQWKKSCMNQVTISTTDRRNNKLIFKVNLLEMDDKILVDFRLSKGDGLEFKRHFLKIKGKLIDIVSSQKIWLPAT

ABL (M351T) = ABL (M351T) (Homo sapiens, UniProt P00519, M351T); details: 1 µM, ATP at Km
SAPK2A(T106M) = SAPK2A(T106M) (Homo sapiens, UniProt Q16539, T106M); details: 1 µM, ATP at Km
Chain of SAPK2A(T106M) (Q16539 whole entry T106M): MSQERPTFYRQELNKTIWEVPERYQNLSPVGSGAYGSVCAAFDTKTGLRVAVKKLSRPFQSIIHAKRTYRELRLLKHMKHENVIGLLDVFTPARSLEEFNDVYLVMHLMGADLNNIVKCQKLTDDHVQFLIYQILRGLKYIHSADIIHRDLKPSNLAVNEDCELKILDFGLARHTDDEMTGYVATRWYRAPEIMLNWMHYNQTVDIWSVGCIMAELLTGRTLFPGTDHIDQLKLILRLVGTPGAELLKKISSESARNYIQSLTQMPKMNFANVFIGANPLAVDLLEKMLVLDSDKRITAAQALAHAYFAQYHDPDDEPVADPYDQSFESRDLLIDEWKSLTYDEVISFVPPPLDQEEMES

IRAK1 = IRAK1 (Homo sapiens, UniProt P51617); details: 1 µM, ATP at Km
Chain of IRAK1 (P51617 whole entry): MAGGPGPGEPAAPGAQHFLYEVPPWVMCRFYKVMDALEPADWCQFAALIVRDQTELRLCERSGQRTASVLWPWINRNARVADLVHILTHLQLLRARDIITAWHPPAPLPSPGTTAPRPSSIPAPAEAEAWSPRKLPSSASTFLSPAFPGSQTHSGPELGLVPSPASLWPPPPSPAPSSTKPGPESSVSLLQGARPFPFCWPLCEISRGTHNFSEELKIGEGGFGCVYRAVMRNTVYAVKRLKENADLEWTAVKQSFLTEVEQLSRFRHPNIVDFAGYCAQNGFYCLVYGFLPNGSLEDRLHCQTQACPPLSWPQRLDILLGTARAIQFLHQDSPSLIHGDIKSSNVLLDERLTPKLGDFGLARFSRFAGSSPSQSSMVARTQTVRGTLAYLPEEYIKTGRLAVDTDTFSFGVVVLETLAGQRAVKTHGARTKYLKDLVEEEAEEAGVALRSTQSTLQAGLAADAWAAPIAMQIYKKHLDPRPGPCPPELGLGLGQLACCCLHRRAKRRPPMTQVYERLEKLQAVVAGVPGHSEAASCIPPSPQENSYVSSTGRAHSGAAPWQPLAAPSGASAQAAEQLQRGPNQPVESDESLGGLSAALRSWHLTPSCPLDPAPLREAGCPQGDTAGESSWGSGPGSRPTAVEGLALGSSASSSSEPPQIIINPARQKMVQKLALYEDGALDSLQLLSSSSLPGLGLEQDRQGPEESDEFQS

PI3 KINASE (E542K/P85A) = PI3 KINASE (E542K/P85A) (Homo sapiens, UniProt P42336, E542K); details: PI3 KINASE (E542K/P85A) (first listing); 1 µM; ATP at Km
EGFR(L858R) = EGFR(L858R) (Homo sapiens, UniProt P00533, L858R); details: 1 µM, ATP at Km
CK1(Y) = details: 1 µM, ATP at Km
PKBGAMMA = PKBGAMMA (Homo sapiens, UniProt Q9Y243); details: 1 µM, ATP at Km
Chain of PKBGAMMA (Q9Y243 whole entry): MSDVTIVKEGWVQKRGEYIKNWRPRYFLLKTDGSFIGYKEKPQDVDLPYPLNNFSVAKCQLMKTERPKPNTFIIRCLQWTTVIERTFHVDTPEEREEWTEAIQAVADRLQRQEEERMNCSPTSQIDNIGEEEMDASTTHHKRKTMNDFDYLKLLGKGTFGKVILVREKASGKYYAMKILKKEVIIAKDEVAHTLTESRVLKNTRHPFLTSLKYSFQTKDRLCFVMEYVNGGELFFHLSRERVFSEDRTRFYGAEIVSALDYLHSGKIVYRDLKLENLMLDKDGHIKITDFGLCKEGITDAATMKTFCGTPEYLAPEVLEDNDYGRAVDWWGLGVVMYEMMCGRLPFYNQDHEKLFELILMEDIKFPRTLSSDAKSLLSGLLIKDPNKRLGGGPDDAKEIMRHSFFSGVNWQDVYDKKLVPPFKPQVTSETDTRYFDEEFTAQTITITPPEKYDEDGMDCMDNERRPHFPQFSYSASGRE

cMET (Y1248D) = cMET (Y1248D) (Homo sapiens, UniProt P08581, Y1230D); details: 1 µM, ATP at Km
ABL (H396P) = ABL (H396P) (Homo sapiens, UniProt P00519, H396P); details: 1 µM, ATP at Km
EGFR(T790M) = EGFR(T790M) (Homo sapiens, UniProt P00533, T790M); details: 1 µM, ATP at Km
ABL(Y253F) = ABL(Y253F) (Homo sapiens, UniProt P00519, Y253F); details: 1 µM, ATP at Km
AURKC = AURKC (Homo sapiens, UniProt Q9UQB9); details: 1 µM, ATP at Km
Chain of AURKC (Q9UQB9 whole entry): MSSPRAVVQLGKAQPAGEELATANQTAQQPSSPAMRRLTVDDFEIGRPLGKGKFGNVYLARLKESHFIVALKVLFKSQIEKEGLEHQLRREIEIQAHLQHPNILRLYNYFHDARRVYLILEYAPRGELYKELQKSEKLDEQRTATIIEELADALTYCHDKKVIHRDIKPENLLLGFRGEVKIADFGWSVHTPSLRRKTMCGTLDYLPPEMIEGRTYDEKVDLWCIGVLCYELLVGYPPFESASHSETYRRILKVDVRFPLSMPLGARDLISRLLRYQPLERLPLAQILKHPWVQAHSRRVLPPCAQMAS

CKIT(D816V) = CKIT(D816V) (Homo sapiens, UniProt P10721, D816V); details: 1 µM, ATP at Km
cMET (D1246H) = cMET (D1246H) (Homo sapiens, UniProt P08581, D1228H); details: 1 µM, ATP at Km
[…](D842V) = […](D842V) (Homo sapiens, UniProt P16234, D842V); details: 1 µM, ATP at Km
FMS(Y969C) = FMS(Y969C) (Homo sapiens, UniProt P07333, Y969C); details: 1 µM, ATP at Km
DCAMKL2 = DCAMKL2 (Homo sapiens, UniProt Q8N568); details: 1 µM, ATP at Km
Chain of DCAMKL2 (Q8N568 whole entry): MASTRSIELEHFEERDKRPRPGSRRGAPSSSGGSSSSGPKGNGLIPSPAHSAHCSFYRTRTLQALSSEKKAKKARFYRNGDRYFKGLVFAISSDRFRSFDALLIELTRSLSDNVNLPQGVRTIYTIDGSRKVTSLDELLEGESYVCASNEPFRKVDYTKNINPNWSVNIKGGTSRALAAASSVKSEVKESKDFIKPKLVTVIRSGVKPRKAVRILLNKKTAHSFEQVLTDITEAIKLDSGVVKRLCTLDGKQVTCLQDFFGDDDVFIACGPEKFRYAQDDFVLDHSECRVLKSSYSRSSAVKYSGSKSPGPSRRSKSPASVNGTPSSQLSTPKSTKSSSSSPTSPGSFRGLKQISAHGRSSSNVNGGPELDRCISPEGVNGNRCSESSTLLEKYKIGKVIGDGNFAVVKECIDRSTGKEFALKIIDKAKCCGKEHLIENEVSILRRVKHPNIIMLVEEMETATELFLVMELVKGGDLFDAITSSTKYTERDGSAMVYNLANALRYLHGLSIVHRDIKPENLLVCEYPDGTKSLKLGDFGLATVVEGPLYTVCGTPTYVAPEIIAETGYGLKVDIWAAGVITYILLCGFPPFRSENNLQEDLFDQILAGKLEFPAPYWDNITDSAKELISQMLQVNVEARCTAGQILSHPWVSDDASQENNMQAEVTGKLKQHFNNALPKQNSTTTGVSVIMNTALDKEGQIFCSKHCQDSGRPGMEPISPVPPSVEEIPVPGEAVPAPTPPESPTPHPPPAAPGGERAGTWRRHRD

AURKA = AURKA (Homo sapiens, UniProt O14965); details: 1 µM, ATP at Km
Chain of AURKA (O14965 whole entry): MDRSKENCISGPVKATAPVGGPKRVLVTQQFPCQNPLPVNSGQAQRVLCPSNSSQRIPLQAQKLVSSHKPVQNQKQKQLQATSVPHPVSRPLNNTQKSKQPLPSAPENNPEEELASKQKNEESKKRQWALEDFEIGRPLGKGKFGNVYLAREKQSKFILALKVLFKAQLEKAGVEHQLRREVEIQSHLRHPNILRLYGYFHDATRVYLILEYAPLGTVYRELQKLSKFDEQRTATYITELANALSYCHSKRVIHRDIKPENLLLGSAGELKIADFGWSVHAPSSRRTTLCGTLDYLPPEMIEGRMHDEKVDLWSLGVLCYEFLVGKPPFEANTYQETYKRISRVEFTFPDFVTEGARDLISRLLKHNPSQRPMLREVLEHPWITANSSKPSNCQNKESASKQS

MELK = MELK (Homo sapiens, UniProt Q14680); details: 1 µM, ATP at Km
Chain of MELK (Q14680 whole entry): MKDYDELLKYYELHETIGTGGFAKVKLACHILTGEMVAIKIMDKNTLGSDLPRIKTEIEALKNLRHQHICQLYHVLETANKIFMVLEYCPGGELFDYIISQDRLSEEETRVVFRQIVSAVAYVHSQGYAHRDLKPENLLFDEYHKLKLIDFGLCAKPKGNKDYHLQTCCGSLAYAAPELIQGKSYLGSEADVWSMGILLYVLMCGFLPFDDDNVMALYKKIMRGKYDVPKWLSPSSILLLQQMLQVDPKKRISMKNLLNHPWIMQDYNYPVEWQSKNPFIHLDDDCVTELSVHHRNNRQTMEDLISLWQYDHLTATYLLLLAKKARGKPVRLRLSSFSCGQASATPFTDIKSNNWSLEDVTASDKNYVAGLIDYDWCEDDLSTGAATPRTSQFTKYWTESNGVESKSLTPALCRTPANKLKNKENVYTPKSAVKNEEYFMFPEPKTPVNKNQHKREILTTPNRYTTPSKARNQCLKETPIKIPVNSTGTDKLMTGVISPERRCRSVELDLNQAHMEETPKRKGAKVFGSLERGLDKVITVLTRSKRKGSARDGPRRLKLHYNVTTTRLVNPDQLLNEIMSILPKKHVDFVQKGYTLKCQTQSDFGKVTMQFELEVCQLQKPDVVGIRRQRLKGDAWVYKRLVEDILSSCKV

HCK = HCK (Homo sapiens, UniProt P08631); details: HCK (second listing, page 11); 1 µM; ATP at Km
cMET (M1268T) = cMET (M1268T) (Homo sapiens, UniProt P08581, M1250T); details: 1 µM, ATP at Km
in vivo = details: mouse
aldehyde oxidase = aldehyde oxidase (Homo sapiens, UniProt Q06278)
Caco-2 = details: human
in vitro [1] = details: mouse, plasma
MAPKAP-K2 = MAPKAP-K2 (Homo sapiens, UniProt P49137); details: 1 µM, ATP at Km
in vitro [2] = details: human, microsomes
in vitro [3] = details: rat, microsomes
in vitro [4] = details: mouse, microsomes
phospho-STAT1^SER727 = details: single 5 mg/kg po dose; SW620 xenograft
CDK9/CYCLINT1 = CDK9/CYCLINT1 (Homo sapiens, UniProt P50750); details: 1 µM, ATP at Km

SMILES: COC1CN(C(=O)c2ccc3c(N)ncc(-c4ccc(-c5cnn(C)c5)cc4)c3c2)C1 [Compound 59]
- percentage effect (SRC(T341M)): -18%
- percentage effect (EGFR(L861Q)): -9%
- percentage effect (BTK(R28H)): -12%
- percentage effect ([…](V561D)): -9%
- percentage effect (CHK2(R145W)): -6%
- percentage effect (cMET (Y1248H)): 6%
- percentage effect (TEC ACTIVATED): 13%
- percentage effect (CKIT(V654A)): 6%
- percentage effect (CHK1): -9%
- percentage effect (ABL (M351T)): 2%
- percentage effect (SAPK2A(T106M)): 1%
- percentage effect (IRAK1): 14%
- percentage effect (PI3 KINASE (E542K/P85A)): -3%
- percentage effect (EGFR(L858R)): -15%
- percentage effect (CK1(Y)): 4%
- percentage effect (PKBGAMMA): -6%
- percentage effect (cMET (Y1248D)): 19%
- percentage effect (ABL (H396P)): 5%
- percentage effect (EGFR(T790M)): -2%
- percentage effect (ABL(Y253F)): -6%
- percentage effect (AURKC): -10%
- percentage effect (CKIT(D816V)): -3%
- percentage effect (cMET (D1246H)): 1%
- percentage effect ([…](D842V)): 1%
- percentage effect (FMS(Y969C)): -31%
- percentage effect (DCAMKL2): 0%
- percentage effect (AURKA): -21%
- percentage effect (MELK): -8%
- percentage effect (HCK): 0%
- percentage effect (cMET (M1268T)): 5%

SMILES: COC1CN(C(=O)c2ccc3c(N)ncc(-c4ccc(-c5cnn(C)c5)cc4)c3n2)C1 [Compound 51]
- percentage effect (TEC ACTIVATED): -18%
- Vd (in vivo; iv, 0.2 mg/kg): 1.87 L/kg
- clearance (in vivo; iv, 0.2 mg/kg): 32.3 mL/min/kg
- bioavailability (in vivo; po, 0.5 mg/kg): 18%
- AO substrate (Enzyme assay) (aldehyde oxidase): No
- percentage effect (CHK1): -8%
- Caco-2 ER (Caco-2): 5.9
- Caco-2 PappA-B (Caco-2): 28.6 × 10^–6 cm/s
- fraction unbound (in vitro [1]): 0.038
- percentage effect (IRAK1): 8%
- percentage effect (PKBGAMMA): -4%
- percentage effect (MAPKAP-K2): 6%
- microsomal CLint at 1 µM (in vitro [2]): 61 µL/min/mg
- percentage effect (AURKC): 6%
- microsomal CLint at 1 µM (in vitro [3]): 26 µL/min/mg
- microsomal CLint at 1 µM (in vitro [4]): 52 µL/min/mg
- inhibition of phospho-STAT1^SER727 in tumor xenograft (phospho-STAT1^SER727): time-dependent inhibition of phospho-STAT1^SER727
- percentage effect (CDK9/CYCLINT1): 8%
- percentage effect (DCAMKL2): 0%
- percentage effect (AURKA): -3%
- percentage effect (MELK): -10%
